Results reported in patent US4912092A, “Methods for increasing extracellular adenosine and for stabilizing mast cells” (The Regents of the University of California, priority 1987, dated 1990).
“And” between values parts separate entries of the source, which are not always exact repeats. Equal entries are not always repeated. “Also recorded” adds a separate entry of the source.

Legend:
[1] = tested on: pentylene tetrazol-induced seizures; assay: Pentylene tetrazol-induced seizures; type: in vivo, rat
arrhythmias = assay: Arrhythmias (PVD, VTAC) during ischemia in dogs; type: in vivo, dog
Method: Thirteen mongrel dogs were anesthetized with phenobarbital. […] C.V. Dis. 20; 55 (1977). […] Two of the surviving saline-treated animals fibrillated. […] The range was 4.4 to 100 μM.
One consequence of myocardial ischemia is arrhythmia and the frequency of arrhythmias is related to the degree of reduced blood flow. […] Electrocardiograms recorded during ischemia of Example III were analyzed for the number of premature ventricular depolarizations (PVD) and ventricular tachycardia (VTAC) episodes.

[2] = tested on: Mouse bone marrow-derived mast cells; type: cell-based; settings: 100 micromolar, A23187 at 1 μg/ml; 28.8% in its absence
Method: (§1) By preventing mast cell degranulation, it is possible to prevent or control a patient's allergic response. Bone marrow obtained from Balb/C mice femurs was cultured in a 1:1 mixture of Razin media and conditioned media, produced by co-culturing splenocytes from C57B1/6J and C3H mice in the presence of Concanavalin A as described by Razin et al. in the Proc. Natl. Acad. Sci. USA 28: 2559-2561, 1981. After weekly passaging and at least 15 days in tissue culture, the resulting cells were 90% pure mast cells and 95% viable as assessed by Trypan blue exclusion. Cells exposed to ribavirin in culture were washed three times prior to use in experiments. Parallel cultures of cells grown in media alone were used as controls for pharmacologically manipulated mast cells. Cell growth was assessed by counting cells at particular time points and comparing actual numbers of ribavirin-treated cells to numbers of cells grown in media alone.
β-hexosaminidase was chosen as a representative granule-associated, preformed mast cell mediator because it is easily quantitated, and its release nearly identically parallels that of histamine. Mouse bone marrow-derived mast cells were centrifuged at 200×g for 5 minutes, washed three times in Tyrode's buffer lacking divalent cations, sensitized for 30 minutes at 37° C. with anti-DNP ([…]) IgE (1 μg/10^6 cells) and challenged with either DNP-BSA antigen (175 ng/3×10^5 cells) or A23187 (10 μg/ml/3×10^5 cells) in 400 μl of complete Tyrode's buffer for 10 minutes at 37° C. Reaction mixtures were centrifuged at 200×g for 10 minutes, and supernatant and pellet β-hexosaminidase concentrations were assayed by the hydrolysis of p-nitrophenyl-β-D-glucosamide as described in Schwartz et al. in J. Immunol. […] Spontaneous β-hexosaminidase release was determined in unchallenged cells. The net % of β-hexosaminidase released is defined as follows: [formula] where [β-hex] is β-hexosaminidase and super. is supernatant. When exogenous adenosine was present in reaction mixtures, it was added simultaneously with the secretagogue.

[3] = tested on: Mouse bone marrow-derived mast cells; assay: Mast cell leukotriene C4 release (radioimmune assay); type: cell-based
Method: as §1

[4] = dog, in vivo
Method: Thirteen mongrel dogs were anesthetized with phenobarbital. The anterior coronary vein was cannulated and a blood sample was collected into 2N perchloric acid. […] Regional myocardial blood flow was measured within 15 μm radiolabelled spheres infused into the left atzium at 5 and 60 minutes during the ischemic period, as described by Heymann et al. in Prog. […] The electrocardiogram and arterial pressure were monitored throughout the period of ischemia.

[5] = tested on: human splenic lymphoblast cell line (WI-L2); assay: Adenosine excretion by human lymphoblasts during ATP breakdown (2-deoxyglucose); type: cell-based
Method: (§2) The history and properties of the cell line have been described by Hershfield et al. in Science, Vol. 197, p. 1284, 1977.
(§3) Catabolism of cellular ATP stores was stimulated by adding either 2-deoxyglucose or a calcium ionophore. At various times, the amount of adenosine released by the cells into the supernatant, or the amount of nucleotides remaining in the cells, was determined by mixing 30 μl of chilled 4.4N perchloric acid with 300 μl of supernatants, or by adding 300 μl of chilled 0.4N perchloric acid to the cells collected as pellets and centrifuging the mixtures at 500×G for 10 minutes at 4° C. […] 1245, 1975. Following centrifugation at 1500×G for three minutes at 4° C., the aqueous phase is removed and frozen at -20° C. until assayed for adenosine, inosine, or for nucleotides. Adenosine was evaluated isocratically on a C-18 microBondapak reverse phase column equilibrated with 4 millimolar potassium phosphate, (pH 3.4):acetonitrile 60% in water (95:5 v/v) buffer. Adenosine elutes at 8-10 minutes, and its identity was confirmed by its sensitivity to adenosine deaminase and by spiking with adenosine standards. The extracted samples from the cell pellet were analyzed for nucleotides by high pressure liquid chromatography on a Whatman Partisil-10 (SAX) column equilibrated with 10 millimolar potassium phosphate, pH 3.78, and eluted with a linear gradient to a 0.25 molar potassium phosphate, 0.5 molar KCl, pH 3.45. […] Peaks were quantitated by comparison with high pressure liquid chromatography analysis of suitable standards.
Cells were grown to about 0.5×10^6 cells/ml (mid-log phase) in FIG. 2 and to about 1.0×10^6 cells/ml (early stationary phase) in FIGS. 7-9.

[6] = tested on: HPRT- neuroblastoma cells; assay: Adenosine excretion by ionophore-stimulated HPRT- neuroblastoma cells; type: cell-based; settings: for Concentration of Adenosine: HPRT-, AICA riboside 50 μM
Method: as §2, §3
(§4) To induce ATP catabolism, the growth medium was replaced by medium containing micromolar amounts of the calcium ionophore A23187 and 1.0 μM deoxycoformycin.

[7] = dog, in vivo, iv
Source text: Thirteen mongrel dogs were anesthetized with phenobarbital. […] C.V. Dis. 20; 55 (1977).

[8] = tested on: HPRT+ neuroblastoma cells; assay: Adenosine excretion by ionophore-stimulated HPRT+ neuroblastoma cells; type: cell-based; settings: for Concentration of Adenosine: HPRT+, AICA riboside 50 μM
Method: as §2, §3, §4

[9] = tested on: adenylosuccinase deficiency (autism); assay: Therapeutic trial in patients with adenylosuccinase deficiency (autism); type: in vivo, human
Source text: Following authorization, therapeutic trials with AICA riboside were started in two patients with adenylosuccinase deficiency (autism). […] On Day 55, both patients were briefly readmitted for clinical, biochemical and psychiatric evaluation. […] Treatment was maintained until Day 71, and arrested at that date.

[10] = dogs 1-6 of the AICA riboside group
[11] = after two months of continuous administration

SMILES: NC(=O)c1ncn([C@@H]2O[C@H](CO)[C@@H](O)[C@H]2O)c1N [AICA riboside, 5-amino-4-imidazolecarboxamide riboside]
- latency to seizure ([1]; 2000 mg/kg (total dose) intraperitoneal (FIG. 12)): dramatic prolongation
- reduction of animals having seizures ([1]; 2000 mg/kg (total dose) intraperitoneal, 60 mg/kg pentylene tetrazol): 40%
- VTAC, average (arrhythmias; average of six dogs, saline 18.2, p<0.01): 4.7 EPISODES/H
- PVD, average (arrhythmias; average of six dogs, saline 112.2, p<0.01): 37.8 EPISODES/H
- PVD, individual dogs (arrhythmias; [10]): 12 EPISODES/H and 10 EPISODES/H and 182 EPISODES/H and 4 EPISODES/H and 13 EPISODES/H and 6 EPISODES/H
- VTAC, individual dogs (arrhythmias; [10]): 1 EPISODES/H and 0 EPISODES/H and 27 EPISODES/H
- hexosaminidase released [2]: 17.6%
- supernatant leukotriene C4 concentration ([3]; 100 μM for six days, A23187 challenge 20 minutes, control 51): 13 nanograms/10^6 cells
- inhibition at 100 µM ([3]; Mus musculus, Mast cell, 100 μM pretreatment for six days, p<0.01, read-out: reduction of leukotriene C4 release): 75%
- arterial blood gas-content and systemic venous granulocyte counts versus saline [4]: not significantly different
- systemic arterial pressure and heart rate versus saline [4]: no significant differences
- adenosine release from lymphoblasts ([5]; 48-hour pretreatment, 100-500 micromolar (FIG. 2)): enhances adenosine release
- adenosine excreted ([5]; 48-hour pretreatment, 500 micromolar AICA riboside, about 1.4 without drug): about 2.3 nanomoles of adenosine/10^6 WI-L2 cells
- adenosine release from lymphoblasts ([5]; 18 hours preincubation before 2-deoxyglucose exposure (FIG. 7)): enhanced adenosine release
- adenosine release from lymphoblasts ([5]; three-hour preincubation and four-hour incubation during 2-deoxyglucose treatment (FIGS. 8, 9)): increased adenosine release
- Concentration of Adenosine ([6]; ionophore 0 μg/ml): < 0.01 µM
- Concentration of Adenosine ([6]; ionophore 10 μg/ml, control 0.124): 0.513 µM
- correction of the twofold lower adenosine secretion of HPRT-deficient cells ([6]; pretreatment): can be corrected by pretreatment
- concentration [7]: 27.2 µM
- adenosine secreted by treated cells versus control cells ([8]; 50 μM AICA riboside, A23187 and 1.0 μM deoxycoformycin): at least twofold more adenosine than control cells
- Concentration of Adenosine ([8]; ionophore 0 μg/ml): < 0.01 µM
- Concentration of Adenosine ([8]; ionophore 10 μg/ml, control 0.329): 0.698 µM
- autistic features, older patient [9, 11]: did not show any modification
- autistic features, younger sibling [9, 11]: clear-cut improvement
- haematology and clinical chemistry parameters ([9]; before and during the trial treatment): normal
- parent's description of both patients ([9]; during therapy): more pleasantly active and more easy to handle during therapy
- clinical or biochemical side effects ([9]; oral 5 mg/kg/day up to 2×10 mg/kg/day): no adverse effects; also recorded: No clinical or biochemical side effects were observed
